Laboratory results as given in BindingDB's records for doi:10.1016/j.bmc.2007.03.073 (University of Upper Alsace, 2007).

Assay: Inhibition of yeast alpha-D-glucosidase

IC50 [µM]	Ki [µM]	Structure (SMILES)
150	–	O=C1CNC[C@@H]1O
–	2	O[C@H]1[C@H](O)CN[C@H]1O
–	6.3	OC[C@H]1NC(O)[C@H](O)[C@@H](O)[C@@H]1O (stereo partly drawn) [NOJIRIMYCIN]
